{
  "source": "patent EP2727627B1",
  "about": "“Oral and dental care and cleaning agents with Tocopherol acetate” (priority 2012, dated 2014)",
  "key": {"Gingiva Fibroblasten [1]": {"system": "Gingiva Fibroblasten", "experiment": "WST-1 vitality test (metabolic activity)", "assay_type": "cell-based", "details": "for Vitalität [%] Mittelwert: 24 h incubation, untreated control = 100 %, mean of 6", "from_the_text": "Als Maß für die Vitalität kann die metabolische Aktivität von Gingiva Fibroblasten nach Inkubation mit Tocopherylacetat gemessen werden. Das chromogene Tetrazoliumsalz WST-1 wird durch stoffwechselaktive Succinatdehydrogenasen lebender Zellen reduktiv aufgespalten, wobei ein wasserlösliches Formazansalz entsteht. Durch UV/VIS-spektroskopische Vermessung der Absorptionsintensität kann die Konzentration der intermediär gebildeten Formazansalze bestimmt werden, welche in Korrelation zur Aktivität der Succinatdehydrogenase steht.\n(§1) Der WST-Vitalitätstest wurde in einer 96-Well Mikrotiterplatte in 6-fach Bestimmung durchgeführt. Dafür wurde pro Well eine definierte Zellzahl von Gingiva Fibroplasten in einem Volumen von 50 µl (microliter) ausgesät. Anschließend wurde Tocopherylacetat in absteigenden Konzentrationen dazugegeben. Nach 24 Stunden Inkubation wurden 10 µl des in Medium verdünnten Tetrazolium-Salzes WST-1 zu jedem Ansatz pipettiert. Es folgte eine dreistündige Inkubation bei 37°C und 5 % Kohlenstoffdioxid, bevor die Absorption bei einer Wellenlänge von 450 nm (Referenzwellenlänge 650 nm) in einem Spektrometer (ELISA-Reader) gemessen wurde. Die Werte der unbehandelten Kontrolle wurden gleich 100 % gesetzt und die Werte der behandelten Proben darauf bezogen.\nFür jede Tocopherylacetat-Konzentration wurde eine 6-fach Bestimmung durchgeführt, aus den 6 Messwerten wurde jeweils der Mittelwert gebildet.\nas §1, with “37 °C” for “37°C”"}, "Gingiva Fibroblasten [2]": {"system": "Gingiva Fibroblasten", "experiment": "ATP determination with ATPLite-M assay (cell energy content)", "assay_type": "cell-based", "from_the_text": "ATP (Adenosintriphosphat) ist die universelle Speicherform für chemische Energie in Zellen. Die ATP-Bestimmung erfolgt mit Hilfe des ATPLiteTM-M Assays (Packard). Das Testprinzip dieses Assays beruht darauf, dass die Luciferase von Photinus pyralis eine Reaktion katalysiert, bei der in Gegenwart von ATP D-Luciferin in Oxyluciferin umgewandelt wird. Bei dieser Reaktion wird grünes Licht emittiert, das mit einem Luminometer gemessen werden kann. Das emittierte Biolumineszenzlicht ist proportional zur Menge des vorhandenen ATP. Zur Bestimmung der ATP-Aktivität in Gingiva Fibroblasten werden diese in geeigneter Weise unter Erhalt ihrer spezifischen Eigenschaften vorkultiviert (DE10162814) und in eine 96well-Zellkulturschale überführt. Die Behandlung mit dem Substanzgemisch erfolgte über 24 Stunden gegen eine unbehandelte Kontrolle. Anschließend wurden die Zellen mit jeweils 50 µl/Kavität eines im Testkit enthaltenen Lysepuffer für 5 min auf einem Schüttler lysiert. Danach wurden die Zellen für weitere 5 min mit jeweils 50 µl/Kavität mit der mitgelieferten Substratlösung auf dem Schüttler inkubiert und anschließend das Reaktionsgemisch in eine schwarze Mikrotiterplatte überführt. Nach einer Inkubationszeit von 10 min in der Dunkelheit erfolgte die Messung. Tabelle 2: Einfluss von Tocopherylacetat auf den Zellenergieinhalt"}, "[3]": {"details": "Fibroblast, 24 h, read-out: Vitalität [%] Mittelwert"}, "[4]": {"details": "low concentrations, Gingiva-Zellen, result in words"}},
  "data": [
    {"smiles": "CC(=O)Oc1c(C)c(C)c2c(c1C)CCC(C)(CCCC(C)CCCC(C)CCCC(C)C)O2", "note": "(stereo not shown) [Tocopherylacetat]", "values": [
      {"measurement": "viability at 0.0005 %", "setting": "Gingiva Fibroblasten [1]; [3]", "result": 133, "unit": "%"},
      {"measurement": "viability at 0.001 %", "setting": "Gingiva Fibroblasten [1]; [3]", "result": 141, "unit": "%"},
      {"measurement": "viability at 0.005 %", "setting": "Gingiva Fibroblasten [1]; [3]", "result": 138, "unit": "%"},
      {"measurement": "viability at 0.01 %", "setting": "Gingiva Fibroblasten [1]; [3]", "result": 150, "unit": "%"},
      {"measurement": "Vitalität [%] Mittelwert", "setting": "Gingiva Fibroblasten [1]; Konz. 0,01 Gew.-%", "result": "150,5%"},
      {"measurement": "Vitalität [%] Mittelwert", "setting": "Gingiva Fibroblasten [1]; Konz. 0,0005 Gew.-%", "result": "132,9%"},
      {"measurement": "Vitalität [%] Mittelwert", "setting": "Gingiva Fibroblasten [1]; Konz. 0,001 Gew.-%", "result": "141,4%"},
      {"measurement": "Vitalität [%] Mittelwert", "setting": "Gingiva Fibroblasten [1]; Konz. 0,005 Gew.-%", "result": "137,7%"},
      {"measurement": "Vitalität", "setting": "Gingiva Fibroblasten [1]; [4]", "result": "signifikanten Steigerung der Vitalität"},
      {"measurement": "activity at 0.01 %", "setting": "Gingiva Fibroblasten [2]; Fibroblast, Konz. 0,01 Gew.-%, 24 h treatment, versus untreated control (100,0), read-out: ATP-Gehalt [%] Mittelwert", "result": 128, "unit": "%"},
      {"measurement": "activity at 0.0025 %", "setting": "Gingiva Fibroblasten [2]; Fibroblast, Konz. 0,0025 Gew.-%, 24 h treatment, versus untreated control (100,0), read-out: ATP-Gehalt [%] Mittelwert", "result": 125, "unit": "%"},
      {"measurement": "activity at 0.005 %", "setting": "Gingiva Fibroblasten [2]; Fibroblast, Konz. 0,005 Gew.-%, 24 h treatment, versus untreated control (100,0), read-out: ATP-Gehalt [%] Mittelwert", "result": 139, "unit": "%"},
      {"measurement": "ATP-Gehalt", "setting": "Gingiva Fibroblasten [2]; [4]", "result": "signifikanten Steigerung des ATP-Gehaltes"}
    ]}
  ]
}
